# From publication PMC9653409, “Generative deep learning enables the discovery of a potent and selective RIPK1 inhibitor” (Nature Communications, 2022)
# Assays:
# Assay in all cases: Kinase inhibitory activity profiling of RI-962@10 µM (406 kinases, Eurofins)
# Assay type in all cases: biochemical
# [1] = target: panel of human kinases (kinase named in endpoint) (Homo sapiens, UniProt P08581, D1228N); details: 10 µM; read-out: Activity (%), Met(D1246N)(h)
# Method in brief: (§1)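 Radiometric filter-binding kinase assays: enzyme preincubated 15 min with compound in 8 mM MOPS pH 7.0, 0.2 mM EDTA, 250 μM peptide substrate, 10 mM magnesium acetate, 10 μM [γ-33P]-ATP. Reaction started with Mg/ATP, run 40 min at room temperature, stopped with phosphoric acid; 33P incorporation read by scintillation counting. Other kinases by similar protocols.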
# [2] = target: panel of human kinases (kinase named in endpoint) (Homo sapiens, UniProt P11309); details: 10 µM; read-out: Activity (%), Pim-1(h)
# Method in brief: as §1
# [3] = target: panel of human kinases (kinase named in endpoint) (Homo sapiens, UniProt P15056, V600E); details: 10 µM; read-out: Activity (%), B-Raf(V599E)(h)
# Method in brief: as §1
# [4] = target: panel of human kinases (kinase named in endpoint) (Homo sapiens, UniProt P22607); details: 10 µM; read-out: Activity (%), FGFR3(h)
# Method in brief: as §1
# [5] = target: panel of human kinases (kinase named in endpoint) (Homo sapiens, UniProt P31751); details: 10 µM; read-out: Activity (%), PKBβ(h)
# Method in brief: as §1
# [6] = target: panel of human kinases (kinase named in endpoint) (Homo sapiens, UniProt P45983); details: 10 µM; read-out: Activity (%), JNK1α1(h)
# Method in brief: as §1
# [7] = target: panel of human kinases (kinase named in endpoint) (Homo sapiens, UniProt P78527); details: 10 µM; read-out: Activity (%), DNA-PK(h)
# Method in brief: as §1
# [8] = target: panel of human kinases (kinase named in endpoint) (Homo sapiens, UniProt Q02763, R849W); details: 10 µM; read-out: Activity (%), Tie2(R849W)(h)
# Method in brief: as §1
# [9] = target: panel of human kinases (kinase named in endpoint) (Homo sapiens, UniProt Q02763, Y897S); details: 10 µM; read-out: Activity (%), Tie2(Y897S)(h)
# Method in brief: as §1
# [10] = target: panel of human kinases (kinase named in endpoint) (Homo sapiens, UniProt Q13315); details: 10 µM; read-out: Activity (%), ATM(h)
# Method in brief: as §1
# [11] = target: panel of human kinases (kinase named in endpoint) (Homo sapiens, UniProt Q14680); details: 10 µM; read-out: Activity (%), MELK(h)
# Method in brief: as §1
# [12] = target: panel of human kinases (kinase named in endpoint) (Homo sapiens, UniProt Q5MAI5); details: 10 µM; read-out: Activity (%), CDKL4(h)
# Method in brief: as §1
# [13] = target: panel of human kinases (kinase named in endpoint) (Homo sapiens, UniProt Q8IW41); details: 10 µM; read-out: Activity (%), PRAK(h)
# Method in brief: as §1
# [14] = target: panel of human kinases (kinase named in endpoint) (Homo sapiens, UniProt Q8IZX4); details: 10 µM; read-out: Activity (%), TAF1L(h)
# Method in brief: as §1
# [15] = target: panel of human kinases (kinase named in endpoint) (Homo sapiens, UniProt Q8N5S9); details: 10 µM; read-out: Activity (%), CaMKK1(h)
# Method in brief: as §1
# [16] = target: panel of human kinases (kinase named in endpoint) (Homo sapiens, UniProt Q92630); details: 10 µM; read-out: Activity (%), DYRK2(h)
# Method in brief: as §1
# [17] = target: panel of human kinases (kinase named in endpoint) (Homo sapiens, UniProt Q96PF2); details: 10 µM; read-out: Activity (%), TSSK2(h)
# Method in brief: as §1
# [18] = target: panel of human kinases (kinase named in endpoint) (Homo sapiens, UniProt Q96QT4); details: 10 µM; read-out: Activity (%), ChaK1(h)
# Method in brief: as §1
# [19] = target: panel of human kinases (kinase named in endpoint) (Homo sapiens, UniProt Q9BQI3); details: 10 µM; read-out: Activity (%), HRI(h)
# Method in brief: as §1
# [20] = target: panel of human kinases (kinase named in endpoint) (Homo sapiens, UniProt Q9NY57); details: 10 µM; read-out: Activity (%), STK32B(h)
# Method in brief: as §1
# [21] = target: panel of human kinases (kinase named in endpoint) (Homo sapiens, UniProt Q9NYL2); details: 10 µM; read-out: Activity (%), ZAK(h)
# Method in brief: as §1
# [22] = target: panel of human kinases (kinase named in endpoint) (Homo sapiens, UniProt Q9UPZ9); details: 10 µM; read-out: Activity (%), ICK(h)
# Method in brief: as §1
# [23] = target: panel of human kinases (kinase named in endpoint) (Homo sapiens, UniProt Q9UQB9); details: 10 µM; read-out: Activity (%), Aurora-C(h)
# Method in brief: as §1
# [24] = target: panel of human kinases (kinase named in endpoint) (Homo sapiens, UniProt Q9UQM7); details: 10 µM; read-out: Activity (%), CaMKIIα(h)
# Method in brief: as §1
# [25] = target: panel of human kinases (kinase named in endpoint) (Homo sapiens, UniProt Q9Y243); details: 10 µM; read-out: Activity (%), PKBγ(h)
# Method in brief: as §1
# Sequence of panel of human kinases (kinase named in endpoint) (Homo sapiens, UniProt Q96PF2) (Q96PF2 whole entry): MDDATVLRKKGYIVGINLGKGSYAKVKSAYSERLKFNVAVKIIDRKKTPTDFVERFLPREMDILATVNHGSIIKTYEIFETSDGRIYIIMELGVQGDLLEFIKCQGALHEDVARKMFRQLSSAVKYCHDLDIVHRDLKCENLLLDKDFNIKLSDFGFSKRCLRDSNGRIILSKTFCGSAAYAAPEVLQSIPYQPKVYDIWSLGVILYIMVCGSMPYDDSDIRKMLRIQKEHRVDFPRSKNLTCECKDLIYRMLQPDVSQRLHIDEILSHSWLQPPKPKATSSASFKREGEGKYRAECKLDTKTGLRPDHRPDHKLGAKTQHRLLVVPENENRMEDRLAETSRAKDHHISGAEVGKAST
# Sequence of panel of human kinases (kinase named in endpoint) (Homo sapiens, UniProt Q8IZX4) (Q8IZX4 whole entry): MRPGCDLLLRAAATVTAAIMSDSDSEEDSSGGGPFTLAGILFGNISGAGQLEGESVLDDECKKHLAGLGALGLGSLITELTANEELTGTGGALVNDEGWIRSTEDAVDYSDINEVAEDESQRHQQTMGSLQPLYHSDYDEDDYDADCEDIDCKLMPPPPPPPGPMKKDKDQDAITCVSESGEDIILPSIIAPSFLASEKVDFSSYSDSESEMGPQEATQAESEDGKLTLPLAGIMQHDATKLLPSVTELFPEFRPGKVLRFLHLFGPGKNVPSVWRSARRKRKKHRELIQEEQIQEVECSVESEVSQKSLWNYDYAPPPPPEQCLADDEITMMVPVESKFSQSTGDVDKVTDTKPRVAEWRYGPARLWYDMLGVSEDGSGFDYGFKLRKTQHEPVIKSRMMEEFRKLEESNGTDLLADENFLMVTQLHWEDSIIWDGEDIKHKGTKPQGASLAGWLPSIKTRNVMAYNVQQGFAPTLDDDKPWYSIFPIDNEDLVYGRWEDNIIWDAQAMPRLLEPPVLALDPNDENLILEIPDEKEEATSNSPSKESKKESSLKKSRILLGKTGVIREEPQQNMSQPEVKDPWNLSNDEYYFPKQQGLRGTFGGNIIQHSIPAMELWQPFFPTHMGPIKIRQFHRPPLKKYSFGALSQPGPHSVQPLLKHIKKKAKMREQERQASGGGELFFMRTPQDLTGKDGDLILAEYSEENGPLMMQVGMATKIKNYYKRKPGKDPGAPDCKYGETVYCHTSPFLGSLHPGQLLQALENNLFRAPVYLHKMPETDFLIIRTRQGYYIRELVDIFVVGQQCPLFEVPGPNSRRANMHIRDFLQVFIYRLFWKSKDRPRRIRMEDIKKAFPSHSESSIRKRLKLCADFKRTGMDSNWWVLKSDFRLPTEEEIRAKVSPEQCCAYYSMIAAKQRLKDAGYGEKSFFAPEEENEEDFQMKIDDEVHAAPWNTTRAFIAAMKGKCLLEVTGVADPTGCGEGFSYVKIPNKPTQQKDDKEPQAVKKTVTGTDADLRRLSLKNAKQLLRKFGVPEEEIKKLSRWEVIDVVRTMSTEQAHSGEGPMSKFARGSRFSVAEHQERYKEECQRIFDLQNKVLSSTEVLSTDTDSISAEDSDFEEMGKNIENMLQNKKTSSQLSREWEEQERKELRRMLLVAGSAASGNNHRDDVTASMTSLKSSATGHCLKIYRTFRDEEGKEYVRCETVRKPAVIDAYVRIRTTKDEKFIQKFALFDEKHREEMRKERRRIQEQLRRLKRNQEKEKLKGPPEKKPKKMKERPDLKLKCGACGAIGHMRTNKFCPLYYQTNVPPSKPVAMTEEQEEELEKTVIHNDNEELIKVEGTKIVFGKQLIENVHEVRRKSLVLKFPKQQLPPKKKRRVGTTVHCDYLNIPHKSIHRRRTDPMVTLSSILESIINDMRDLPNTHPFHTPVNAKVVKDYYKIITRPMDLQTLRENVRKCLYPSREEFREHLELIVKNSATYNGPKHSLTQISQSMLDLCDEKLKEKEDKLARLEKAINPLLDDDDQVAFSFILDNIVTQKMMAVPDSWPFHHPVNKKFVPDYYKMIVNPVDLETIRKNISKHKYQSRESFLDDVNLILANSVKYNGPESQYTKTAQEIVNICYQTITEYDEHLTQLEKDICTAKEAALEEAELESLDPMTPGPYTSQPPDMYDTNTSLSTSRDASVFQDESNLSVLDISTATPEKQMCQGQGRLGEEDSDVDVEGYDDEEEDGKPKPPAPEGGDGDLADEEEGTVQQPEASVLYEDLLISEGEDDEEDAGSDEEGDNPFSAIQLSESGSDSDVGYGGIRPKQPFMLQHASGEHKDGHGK
# Sequence of panel of human kinases (kinase named in endpoint) (Homo sapiens, UniProt Q9UQB9) (Q9UQB9 whole entry): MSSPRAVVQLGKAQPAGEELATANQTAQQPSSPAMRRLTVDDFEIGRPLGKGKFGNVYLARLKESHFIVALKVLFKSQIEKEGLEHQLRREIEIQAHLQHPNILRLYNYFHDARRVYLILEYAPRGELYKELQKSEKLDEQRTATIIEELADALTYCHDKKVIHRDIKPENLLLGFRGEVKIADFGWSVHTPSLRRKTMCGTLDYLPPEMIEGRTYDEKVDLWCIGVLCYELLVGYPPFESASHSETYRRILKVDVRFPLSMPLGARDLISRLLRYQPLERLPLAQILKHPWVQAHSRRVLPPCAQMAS
# Sequence of panel of human kinases (kinase named in endpoint) (Homo sapiens, UniProt Q14680) (Q14680 whole entry): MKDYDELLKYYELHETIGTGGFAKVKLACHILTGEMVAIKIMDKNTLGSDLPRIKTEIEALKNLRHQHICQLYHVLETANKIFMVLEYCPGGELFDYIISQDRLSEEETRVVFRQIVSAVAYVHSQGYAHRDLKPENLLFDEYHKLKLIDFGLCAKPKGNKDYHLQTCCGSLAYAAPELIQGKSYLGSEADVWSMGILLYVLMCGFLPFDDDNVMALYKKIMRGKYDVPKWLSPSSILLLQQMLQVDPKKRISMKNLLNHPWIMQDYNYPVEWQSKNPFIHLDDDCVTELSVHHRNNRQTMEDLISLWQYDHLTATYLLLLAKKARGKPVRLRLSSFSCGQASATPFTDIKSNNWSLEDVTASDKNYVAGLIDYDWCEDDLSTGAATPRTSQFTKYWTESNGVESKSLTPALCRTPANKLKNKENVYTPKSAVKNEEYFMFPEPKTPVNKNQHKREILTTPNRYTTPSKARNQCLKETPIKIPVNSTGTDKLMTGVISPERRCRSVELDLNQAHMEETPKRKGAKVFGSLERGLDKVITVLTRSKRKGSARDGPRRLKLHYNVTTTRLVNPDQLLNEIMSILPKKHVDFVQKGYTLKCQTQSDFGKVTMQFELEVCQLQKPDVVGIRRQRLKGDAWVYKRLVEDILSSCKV
# Sequence of panel of human kinases (kinase named in endpoint) (Homo sapiens, UniProt Q02763, R849W) (Q02763 23-1124 R849W): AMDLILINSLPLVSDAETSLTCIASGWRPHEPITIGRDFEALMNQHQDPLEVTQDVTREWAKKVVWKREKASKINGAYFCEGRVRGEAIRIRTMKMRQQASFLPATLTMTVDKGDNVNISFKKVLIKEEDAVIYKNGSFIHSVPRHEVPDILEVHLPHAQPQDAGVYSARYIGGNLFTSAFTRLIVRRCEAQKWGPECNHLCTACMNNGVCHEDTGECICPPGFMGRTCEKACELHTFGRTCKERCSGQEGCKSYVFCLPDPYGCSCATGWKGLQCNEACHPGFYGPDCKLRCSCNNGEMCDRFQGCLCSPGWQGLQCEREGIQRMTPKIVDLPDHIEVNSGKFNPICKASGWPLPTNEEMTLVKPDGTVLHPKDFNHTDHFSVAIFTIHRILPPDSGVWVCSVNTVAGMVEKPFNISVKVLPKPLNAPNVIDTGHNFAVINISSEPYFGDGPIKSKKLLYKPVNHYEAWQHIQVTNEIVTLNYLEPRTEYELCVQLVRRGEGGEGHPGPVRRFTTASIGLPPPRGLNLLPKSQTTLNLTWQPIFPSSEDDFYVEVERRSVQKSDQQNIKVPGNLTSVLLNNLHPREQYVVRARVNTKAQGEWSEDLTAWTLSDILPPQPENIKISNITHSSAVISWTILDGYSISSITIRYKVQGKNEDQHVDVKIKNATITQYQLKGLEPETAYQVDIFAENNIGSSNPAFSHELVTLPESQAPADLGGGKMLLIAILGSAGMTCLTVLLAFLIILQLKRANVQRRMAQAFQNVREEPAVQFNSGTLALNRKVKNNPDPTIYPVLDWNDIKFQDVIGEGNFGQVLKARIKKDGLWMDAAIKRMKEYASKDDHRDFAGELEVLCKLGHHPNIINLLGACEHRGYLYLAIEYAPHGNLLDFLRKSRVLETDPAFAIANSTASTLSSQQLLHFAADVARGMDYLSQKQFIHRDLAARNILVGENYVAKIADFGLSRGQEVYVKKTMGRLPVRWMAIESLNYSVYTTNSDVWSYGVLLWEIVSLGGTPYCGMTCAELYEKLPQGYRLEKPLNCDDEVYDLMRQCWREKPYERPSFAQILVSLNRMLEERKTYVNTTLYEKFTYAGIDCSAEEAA
# Sequence of panel of human kinases (kinase named in endpoint) (Homo sapiens, UniProt Q9UQM7) (Q9UQM7 whole entry): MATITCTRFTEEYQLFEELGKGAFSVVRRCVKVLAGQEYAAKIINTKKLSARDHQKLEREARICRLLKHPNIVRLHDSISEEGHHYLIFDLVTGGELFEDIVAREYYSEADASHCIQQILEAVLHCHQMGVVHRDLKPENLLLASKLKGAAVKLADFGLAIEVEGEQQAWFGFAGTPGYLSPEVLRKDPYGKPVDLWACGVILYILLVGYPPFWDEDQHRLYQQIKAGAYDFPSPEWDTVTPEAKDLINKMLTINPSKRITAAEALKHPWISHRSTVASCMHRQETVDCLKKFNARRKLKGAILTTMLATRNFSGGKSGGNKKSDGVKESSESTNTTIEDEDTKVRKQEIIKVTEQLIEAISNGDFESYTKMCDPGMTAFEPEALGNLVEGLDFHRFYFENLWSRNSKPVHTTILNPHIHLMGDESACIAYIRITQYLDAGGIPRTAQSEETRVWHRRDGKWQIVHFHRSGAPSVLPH
# Sequence of panel of human kinases (kinase named in endpoint) (Homo sapiens, UniProt P11309) (P11309 whole entry): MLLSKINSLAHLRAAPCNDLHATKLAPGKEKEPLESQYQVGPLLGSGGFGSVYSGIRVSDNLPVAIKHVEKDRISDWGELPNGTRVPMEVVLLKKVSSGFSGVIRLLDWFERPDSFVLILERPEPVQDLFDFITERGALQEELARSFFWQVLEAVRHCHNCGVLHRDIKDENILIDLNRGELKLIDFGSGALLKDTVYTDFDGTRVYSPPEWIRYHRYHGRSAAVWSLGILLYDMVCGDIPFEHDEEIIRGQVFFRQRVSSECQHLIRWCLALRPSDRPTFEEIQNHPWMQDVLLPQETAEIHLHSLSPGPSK
smiles,measurement,setting,value
CC(C)C(=O)Nc1nc2cc(-c3ccc4c(c3)c(C(=O)NC(C)c3ccccc3)cn4C)ccn2n1 (stereo not shown) [RI-962],activity at 10 µM,[1],125%
same,activity at 10 µM,[2],101%
same,activity at 10 µM,[3],107%
same,activity at 10 µM,[4],72%
same,activity at 10 µM,[5],92%
same,activity at 10 µM,[6],99%
same,activity at 10 µM,[7],100%
same,activity at 10 µM,[8],109%
same,activity at 10 µM,[9],69%
same,activity at 10 µM,[10],85%
same,activity at 10 µM,[11],95%
same,activity at 10 µM,[12],70%
same,activity at 10 µM,[13],64%
same,activity at 10 µM,[14],89%
same,activity at 10 µM,[15],56%
same,activity at 10 µM,[16],92%
same,activity at 10 µM,[17],76%
same,activity at 10 µM,[18],85%
same,activity at 10 µM,[19],99%
same,activity at 10 µM,[20],85%
same,activity at 10 µM,[21],72%
same,activity at 10 µM,[22],102%
same,activity at 10 µM,[23],95%
same,activity at 10 µM,[24],93%
same,activity at 10 µM,[25],95%
